Assay results from US20040103453A1, “Lipoxygenase genes, promoters, transit peptides and proteins thereof” (priority 2000, published 2004).
“Also recorded” adds a separate entry of the source.

Legend:
RCI-1 transcripts = assay: RNA gel blot (Northern) analysis of RCI-1 transcripts in treated rice leaves; format: in vivo, Oryza sativa cv. Kusabue; conditions: for RCI-1 transcript (mRNA) accumulation: RNA from chemically treated rice leaves, INA and BTH sprayed onto leaves, probenazole by soil drench
[1] = system: lipoxygenase (LOX) enzyme activity in rice leaves; assay: LOX enzyme activity in BTH-treated rice leaves; format: in vivo, Oryza sativa cv. Kusabue; conditions: between 24 and 48 h after BTH treatment
RLL2 transcripts = assay: RNA gel blot probed with rice LOX cDNA RLL2; format: in vivo; conditions: RNA from treated rice plants
L-2 transcripts = assay: RNA gel blot probed with rice LOX cDNA L-2; format: in vivo; conditions: RNA from treated rice plants
[2] = system: lipoxygenase (LOX, linoleate:oxygen oxidoreductase, EC 1.13.11.12); conditions: treatment of rice; cited from earlier work
rice blast disease = conditions: treatment of rice; cited from earlier work
[3] = HPLC analysis of reaction products of recombinant RCI-1; conditions: linoleic acid or linolenic acid as substrate, 0.1 M Tris-HCl pH 8.8, 20 min, 30° C.
Procedure: Lipoxygenase activity is measured at 30° C. photospectrometrically at 234 nm using linoleic acid as a substrate and 5-20 μl from the recombinant RCI-1 enzyme extract (Bohland et al. (1997) Plant Physiol. 114, 679-685). For determination of the pH optimum, different buffers with overlapping pH ranges (pH 4-6: 0.1 M Na-acetate; pH 6-8: 0.1 M Na-phosphate; pH 8-10: 0.1 M Tris-HCl) are used. The molar extinction coefficient of the reaction product, 2.5×10^7 cm^−1 mol^−1, is used for the calculation of the enzyme activity. […] The products of the enzymatic activity of the RCI-1 protein are analyzed by HPLC (Bohland et al. (1997) Plant Physiol. 114, 679-685). Approximately 0.2 nkat enzyme activity obtained from recombinant RCI-1 protein is incubated with 50 μl substrate solution (10 μl of linoleic or α-linolenic acid, respectively; 20 μl ethanol, 20 μl H2O) in 2 ml 0.1 M Tris-HCl pH 8.8 for 20 min. at 30° C. The reaction is stopped by lowering the pH to 3.0 with diluted HCl, and the hydroperoxides are extracted with 1 ml of CHCl3 followed by two washes with water. […] Products are detected at 234 nm and standards are obtained from Biomol (Hamburg, Germany) or prepared from linoleic or α-linolenic acid by incubation with soybean lipoxygenase, respectively, as described (Bohland et al. (1997) Plant Physiol. 114, 679-685).

[4] = Photospectrometric lipoxygenase activity of recombinant RCI-1 enzyme extract; conditions: linoleic acid as substrate
Procedure: Production of recombinant RCI-1 protein is induced by addition of 1 mM IPTG (final concentration) to a 250 ml E. coli M15 culture grown to an OD600 of 1 and further incubation on a shaker overnight at 19° C. The cells are harvested by centrifugation (5000 g, 10 minutes) and resuspended in 5 ml lysis buffer (50 mM Na-phosphate buffer pH 7.5 containing 1 mg l-1 lysozyme). After a 30 minute incubation on ice, the lysate is centrifuged (12000 g, 15 minutes) and the pellet is transferred into a mortar and ground in extraction buffer (0.1 M K-phosphate buffer pH 7, 30 mg polyvinyl-poly-pyrrolidone, 1 mM EDTA). After centrifugation, the clear supernatant is used as an enzyme preparation for further biochemical analysis.
Lipoxygenase activity is measured at 30° C. photospectrometrically at 234 nm using linoleic acid as a substrate and 5-20 μl from the recombinant RCI-1 enzyme extract (Bohland et al. (1997) Plant Physiol. 114, 679-685). For determination of the pH optimum, different buffers with overlapping pH ranges (pH 4-6: 0.1 M Na-acetate; pH 6-8: 0.1 M Na-phosphate; pH 8-10: 0.1 M Tris-HCl) are used. The molar extinction coefficient of the reaction product, 2.5×10^7 cm^−1 mol^−1, is used for the calculation of the enzyme activity.

[5] = rice leaves treated with INA, time course, RNA gel blot

## CSC(=O)c1cccc2nnsc12 [BTH, benzo(1,2,3)thiadiazole-7-carbothioic acid S-methyl ester]
RCI-1 transcripts
  RCI-1 transcript (mRNA) accumulation: induces RCI1 transcript accumulation; also recorded: strong hybridization signal
[1]
  LOX enzymatic activity in rice leaves: significant increase
RLL2 transcripts
  RLL2 transcript accumulation: do not accumulate
L-2 transcripts
  L-2 transcript accumulation: do not accumulate

## O=C(O)c1cc(Cl)nc(Cl)c1 [INA, 2,6-dichloroisonicotinic acid]
RCI-1 transcripts
  RCI-1 transcript (mRNA) accumulation: strong hybridization signal
RCI-1 transcripts; [5]
  time after treatment at which RCI-1 transcripts reach maximal levels: 24 to 48 h
  time after treatment at which RCI-1 transcripts start to accumulate: 8 h
RLL2 transcripts
  RLL2 transcript accumulation: do not accumulate
L-2 transcripts
  L-2 transcript accumulation: do not accumulate

## N#CCNC(=O)c1ccnc(Cl)c1 [N-cyanomethyl-2-chloroisonicotinamid]
[2]
  induction of the enzyme lipoxygenase: induced the enzyme lipoxygenase
Rice blast disease
  resistance inducing activity against rice blast disease: good resistance inducing activity

## CC/C=C\C[C@H]1C(=O)CC[C@@H]1CC(=O)O [jasmonic acid]
RCI-1 transcripts; 7 to 12 h after spraying of a 1 mM solution onto rice leaves
  RCI-1 transcript levels: strongly increase
RCI-1 transcripts
  RCI-1 transcript (mRNA) accumulation: strong hybridization signal

## C=CCOC1=NS(=O)(=O)c2ccccc21 [probenazole]
RCI-1 transcripts
  RCI-1 transcript (mRNA) accumulation: induces RCI1 transcript accumulation; also recorded: strong hybridization signal
RCI-1 transcripts; probenazole soil drench, compared with INA and BTH spraying
  time course of RCI-1 mRNA accumulation: delayed time course
RLL2 transcripts
  RLL2 transcript accumulation: do not accumulate
L-2 transcripts
  L-2 transcript accumulation: do not accumulate

B1: RCI-1: rice lipoxygenase protein of 922 amino acids (SEQ ID NO:7) encoded by RCI-1 cDNA, expressed recombinantly in E. coli (protein, listed as Oryza sativa)
chain: MLTATQTLAPAVLSRSHGAPSSFSSQPRRTAAAASRVSCTRVGALSEVVNGELVVGDQEQTTDDLLTRHKNVVADYTLSATVTVSLKQDDSTPQKVADMVNRDWLFLDFFSSHIEGMHTEPQLARYSHMDGKGSFIYEASFSIPSSLDAVGAVQVVNRYSSEVYISDIDVHLCGGRHQWTDITFHCNSWIDYNPNDQRFFFPLKSYLPSQTPRGVKNLRKEELRAIRGDGRGERKEWERIYDYDVYNDLGDPDNDPATRRPVLGGRGRPYPRRCRTGRRRCRTDPSSESPPAKDGAGIYVPRDEAFTERKAGAFATKKALSALSAFTTAQRVSGDRRRGFPSLAAIDALYEDGYKNRPSSSQQEADNLEGYFREVLQKQVKLLLKGEKEEFKEELRKVFKFQTPEIHDKDKLAWFRDEEFARQTLAGMNPLSIQLVRDTDFPIFSKLDEETYGPGDSLITKELIEEQINGVMTAEEAVEKKKLFMLDYHDVLLPFVHAVRELDDTTLYASRTLFFLTEDGTLRPIAIELTRPKSPNTPQWRQVFTPGSSVAASWLWQLAKTHVLAHDTGYHQLVSHWLRTHCCVEPYVIAANRRLSQMHPIYRLLHPHFRFTMEINAQARGMLINANGIIESAFAPGKLCMELSSAVYDKFWRFDMEALPADLIRRGMAIECEDGKLELTIEDYPYANDGLLIWDSIKEWVSDYVNHYYQLASDIHMDKELQGWWNEVRTKGHPDKEEGWPELNCHGSLVEVLTTIIWVASGHHAAVNFGQYPYAGYFPNRPTIARRNMPTEGQACSHDGMQPTFVEDPVRVLLDTFPSQYQTTLVLPVLNLLSSHSPGEEYMGTHAESAWMADREVRAAFGRFNERMMSIAEMIDCRNKDPERKNRQGPGVVPYVLLKPSYGDPKDMTSVMEMGIPNSISI
[3]
  reaction product (9S)-hydroperoxy-(10E,12Z,15Z) octadecatrienoic acid (9-HPOD): only detected in minor amounts
  reaction product (13S)-hydroperoxy-(9Z,11E,15Z)-octadecatrienoic acid (13-HPOD): predominant product
[4]; 30° C., 234 nm, control extracts no detectable LOX activity
  LOX activity of crude E. coli extract: increased LOX activity
[4]; buffers pH 4-10
  pH of maximal LOX activity: 8 to 9 pH
